Source: paper PMC12670426 (Journal of Medicinal Chemistry, 2025)

Columns and labels:
Format in all cases: in vitro ADME
[1] = Plasma stability assay, human plasma; details: pooled plasma, 37 °C
Experimental: (§1) Test compounds (10 μM) were incubated with mouse, rat, or human pooled plasma from 50 donors (Biowest) at 37 °C for 20, 60, and 120 min. Reactions were terminated by adding four volumes of ice-cold methanol, followed by vigorous mixing. Samples were kept at −20 °C for 30 min and then stored at 4 °C overnight. The next day, samples were centrifuged, and supernatants were diluted with four volumes of 30% methanol in water. Zero time points were prepared by adding ice-cold methanol to the compound prior to the addition of plasma. Samples were then analyzed on an Echo MS system (SCIEX) using multiple reaction monitoring (MRM). The only exception was compound 3af, which was analyzed by LC–MS/MS (SCIEX 6500 triple quadrupole) due to its weak ionization in Echo-MS.

[2] = Plasma stability assay, mouse plasma; details: 37 °C
Experimental: as §1

[3] = Plasma stability assay, rat plasma; details: 37 °C
Experimental: as §1

[4] = Microsomal stability assay, human liver microsomes; details: pooled liver microsomes, pH 7.4, human liver microsomes 0.5 mg/mL, NADPH
Experimental: Microsomal stability was determined using 0.5 mg/mL of pooled human, mouse, or rat liver microsomes (Thermo Fisher Scientific) in 90 mM TRIS-Cl buffer (pH 7.4) containing 2 mM NADPH and 2 mM MgCl2. Test compounds (10 μM) were added, and the resulting mixture was incubated at 37 °C for 10, 60, 120, and 180 min. The reactions were terminated by the addition of four volumes of ice-cold methanol, followed by vigorous mixing. The samples were left at −20 °C for 30 min and then stored at 4 °C overnight. The next day, samples were centrifuged, and supernatants were diluted with four volumes of 30% methanol in water. Zero time points were prepared by adding ice-cold methanol to the mixture of compounds and cofactors prior to the addition of microsomes. The samples were then analyzed using the Echo-MS system (SCIEX) with MRM transition monitoring, except for compound 3af, which was analyzed by LC–MS/MS as described in the plasma stability assay.

[5] = Plasma protein binding assay (rapid equilibrium dialysis), rat plasma; details: fraction bound, read-out: plasma protein binding Fb rat (converted)
Experimental: (§2) Test compound (10 μM) was incubated at 37 °C for 4 h with mouse, rat, or human plasma (Biowest) in the donor well of a rapid equilibrium dialysis plate (Thermo Fisher Scientific). PBS was placed in the acceptor well. To stop the assay, samples were collected from both wells, and an equal volume of plasma was added to the PBS sample, and vice versa. Proteins were then precipitated by adding three volumes of ice-cold methanol. Samples were mixed gently, kept at −20 °C for 30 min, and then stored at 4 °C overnight. The next day, the samples were centrifuged, and the supernatants were diluted with four volumes of 30% methanol in water. The samples were then analyzed using the Echo-MS system (SCIEX) with MRM transition monitoring, except for compound 3af, which was analyzed by LC–MS/MS as described in the plasma stability assay.

[6] = Plasma protein binding, summary across species; details: summary across human, mouse and rat plasma
Experimental: as §2

remaining at 2 h, 10 μM [1]: 110 ± 6%
remaining at 2 h, 10 μM [2]: 100 ± 3%
remaining at 2 h, 10 μM [3]: 87 ± 6%
microsomal CLint at 10 μM [4]: < 2 µL/min/mg
fraction unbound at 4 h, 10 μM [5]: 0.1
fraction unbound at 4 h, 10 μM [6]: 0.1 to 0.78
SMILES: CC(=O)N(c1cc(C(=O)O)cc2[nH]ccc12)[C@@H]1O[C@H](CO)[C@@H](S[C@@H]2O[C@H](CO)[C@H](O)[C@H](n3cc(-c4cccc(F)c4)nn3)[C@H]2O)[C@H](O)[C@H]1O [Compound 11, N-[4-S-(3-Deoxy-3-(4-(3-fluorophenyl)-1H-1,2,3-triazol-1-yl)-β-D-galactopyranosyl)-4-thio-β-D-glucopyranosyl]-N-(6-carboxy-1H-indol-4-yl)acetamide]
